The values that follow come from patent US20240199587A1, “HETEROCYCLIC COMPOUNDS” (Hoffmann-La Roche Inc., priority 2021, published 2024).

The structures appear in SMILES notation.

For this assay, the target named is T1, MAGL (Homo sapiens, UniProt Q99685).
T1 sequence (Q99685 1-303): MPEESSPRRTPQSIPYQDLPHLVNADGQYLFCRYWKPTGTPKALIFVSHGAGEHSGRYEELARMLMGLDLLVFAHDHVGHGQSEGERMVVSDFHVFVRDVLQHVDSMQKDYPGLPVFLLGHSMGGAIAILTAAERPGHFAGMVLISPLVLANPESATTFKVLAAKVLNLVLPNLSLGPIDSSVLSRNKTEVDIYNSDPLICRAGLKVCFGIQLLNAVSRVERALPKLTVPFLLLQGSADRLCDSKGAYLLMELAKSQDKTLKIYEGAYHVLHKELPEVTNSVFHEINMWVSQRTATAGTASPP
Nature of the assay: 2-AG assay (MAGL inhibitory activity, hydrolysis of 2-arachidonoylglycerol to arachidonic acid followed by mass spectrometry). The assay is classed as biochemical. The conditions noted are these: 8 μM 2-arachidonoylglycerol, 15 min pre-incubation, 30 min incubation at RT, RapidFire MS readout. In short, it runs like this:
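Human MAGL ([…] final) pre-incubated 15 min at RT with compound in 50 mM TRIS, 1 mM EDTA, 0.01% Tween-20, 2.5% DMSO; 8 μM 2-AG then added for 30 min at RT. Acetonitrile quench with d8-arachidonic acid; arachidonic acid measured by RapidFire SPE–MS/MS, activity from arachidonic acid/d8 ratio.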
In general, IC50 refers to the concentration that gives 50% inhibition. On to `O=C(N1CC2(CC(n3cnc(C4CC4)n3)C2)C1)N1CC2(C1)CN(S(=O)(=O)c1ccc(F)cc1C(F)(F)F)C2` [Example 211, (6-(3-cyclopropyl-1H-1,2,4-triazol-1-yl)-2-azaspiro[3.3]heptan-2-yl)(6-((4-fluoro-2-(trifluoromethyl)phenyl)sulfonyl)-2,6-diazaspiro[3.3]heptan-2-yl)methanone], for which 1.4 nM corresponded to half-maximal inhibition (IC50).

The molecule `O=C(N1CC(c2ccc(N3CCC(O)(C(F)(F)F)C3)nc2)C1)N1CC2(CC(n3cnc(C4CC4)n3)C2)C1` (stereo not drawn) [Example 212, [6-(3-cyclopropyl-1,2,4-triazol-1-yl)-2-azaspiro[3.3]heptan-2-yl]-[3-[6-[3-hydroxy-3-(trifluoromethyl)pyrrolidin-1-yl]-3-pyridyl]azetidin-1-yl]methanone] displayed a half-inhibitory concentration (IC50) of 1.5 nM.

Regarding `O=C(N1CC2(CC(n3cnc(C4CC4)n3)C2)C1)N1CC2(C1)CN(S(=O)(=O)c1cc(F)cc(F)c1)C2` [Example 213, [6-(3-cyclopropyl-1,2,4-triazol-1-yl)-2-azaspiro[3.3]heptan-2-yl]-[2-(3,5-difluorophenyl)sulfonyl-2,6-diazaspiro[3.3]heptan-6-yl]methanone], the 50% inhibitory concentration (IC50) came to 1.6 nM.

As to `CC(C)(C)CS(=O)(=O)NC1CC2(C1)CN(C(=O)N1CC3(CC(n4cnc(C5CC5)n4)C3)C1)C2` [Example 215, N-[2-[6-(3-cyclopropyl-1,2,4-triazol-1-yl)-2-azaspiro[3.3]heptane-2-carbonyl]-2-azaspiro[3.3]heptan-6-yl]-2,2-dimethyl-propane-1-sulfonamide], half-maximal inhibition (IC50) required 1.7 nM.

On to `O=C(N1CC(c2ccc(N3CC[C@@](O)(C(F)(F)F)C3)nc2)C1)N1CC2(CC(n3cnc(C4CC4)n3)C2)C1` [Example 216], for which inhibition was half-maximal at 2 nM (IC50).

`O=C(N1CC2(CC(Cc3ccc(F)cn3)C2)C1)N1CC2(CC(n3cnc(C4CC4)n3)C2)C1` [Example 217, [6-(3-cyclopropyl-1,2,4-triazol-1-yl)-2-azaspiro[3.3]heptan-2-yl]-[6-[(5-fluoro-2-pyridyl)methyl]-2-azaspiro[3.3]heptan-2-yl]methanone] gave an IC50 of 2 nM.

As for `Cc1cn(C2CC3(C2)CN(C(=O)N2CC4(CC(Cc5ccc(F)cc5F)C4)C2)C3)cn1` [Example 218, [6-[(2,4-difluorophenyl)methyl]-2-azaspiro[3.3]heptan-2-yl]-[6-(4-methylimidazol-1-yl)-2-azaspiro[3.3]heptan-2-yl]methanone], the IC50 stood at 2.1 nM.

Consider `COc1c(OC2CN(C(=O)N3CC4(CC(n5cnc(C6CC6)n5)C4)C3)C2)cccc1C(F)(F)F` [Example 219, (6-(3-cyclopropyl-1H-1,2,4-triazol-1-yl)-2-azaspiro[3.3]heptan-2-yl)(3-(2-methoxy-3-(trifluoromethyl)phenoxy)azetidin-1-yl)methanone], for which the midpoint of inhibition, the IC50, lay at 2.2 nM.

Regarding `O=C(N1CC2(CC(n3cnc(C4CC4)n3)C2)C1)N1CC2(CN(Cc3cc(F)cc(F)c3)C2)C1` [Example 221, [6-(3-cyclopropyl-1,2,4-triazol-1-yl)-2-azaspiro[3.3]heptan-2-yl]-[6-[(3,5-difluorophenyl)methyl]-2,6-diazaspiro[3.3]heptan-2-yl]methanone], the IC50 is 2.5 nM.

As to `O=C(N1CC(Oc2cccc(C(F)(F)F)c2Cl)C1)N1CC2(CC(n3cnc(C4CC4)n3)C2)C1` [Example 222, (3-(2-chloro-3-(trifluoromethyl)phenoxy)azetidin-1-yl)(6-(3-cyclopropyl-1H-1,2,4-triazol-1-yl)-2-azaspiro[3.3]heptan-2-yl)methanone], the IC50 came to 2.6 nM.

As for `O=C(N1CC2(CC(n3cnc(C4CC4)n3)C2)C1)N1CC2(C1)CN(S(=O)(=O)c1ccccc1C(F)(F)F)C2` [Example 223, [6-(3-cyclopropyl-1,2,4-triazol-1-yl)-2-azaspiro[3.3]heptan-2-yl]-[2-[2-(trifluoromethyl)phenyl]sulfonyl-2,6-diazaspiro[3.3]heptan-6-yl]methanone], the IC50 came to 3 nM.

As for `O=C(N1CC2(CC(n3cnc(C4CC4)n3)C2)C1)N1CC2(C1)CN(S(=O)(=O)C1CCCCC1)C2` [Example 224, (2-cyclohexylsulfonyl-2,6-diazaspiro[3.3]heptan-6-yl)-[6-(3-cyclopropyl-1,2,4-triazol-1-yl)-2-azaspiro[3.3]heptan-2-yl]methanone], the IC50 came out at 3 nM.

On to `O=C(N1CC2(CC(n3cnc(C4CC4)n3)C2)C1)N1CC2(C1)CN(S(=O)(=O)c1ccc(C(F)(F)F)cc1)C2` [Example 225, [6-(3-cyclopropyl-1,2,4-triazol-1-yl)-2-azaspiro[3.3]heptan-2-yl]-[2-[4-(trifluoromethyl)phenyl]sulfonyl-2,6-diazaspiro[3.3]heptan-6-yl]methanone], for which 3.3 nM corresponded to half-maximal inhibition (IC50).

The molecule `O=C(N1CC2(CC(n3cnc(C4CC4)n3)C2)C1)N1CC2(C1)CN(S(=O)(=O)c1cc(F)cc(C(F)(F)F)c1)C2` [Example 226, [6-(3-cyclopropyl-1,2,4-triazol-1-yl)-2-azaspiro[3.3]heptan-2-yl]-[2-[3-fluoro-5-(trifluoromethyl)phenyl]sulfonyl-2,6-diazaspiro[3.3]heptan-6-yl]methanone] showed an IC50 of 3.6 nM.

`O=C(N1CCC([C@@H](c2ccc(F)cc2)c2nc(C3CC3)no2)CC1)N1CC2(CC(n3cnc(C4CC4)n3)C2)C1` [Example 227, [4-[(S)-(3-cyclopropyl-1,2,4-oxadiazol-5-yl)-(4-fluorophenyl)methyl]-1-piperidyl]-[6-(3-cyclopropyl-1,2,4-triazol-1-yl)-2-azaspiro[3.3]heptan-2-yl]methanone] came in with an IC50 of 3.8 nM.

Turning to `O=C(N1CC2(CC(n3cnc(C4CC4)n3)C2)C1)N1CC2(C1)CN(S(=O)(=O)c1ccc(F)cc1Cl)C2` [Example 228, [2-(2-chloro-4-fluoro-phenyl)sulfonyl-2,6-diazaspiro[3.3]heptan-6-yl]-[6-(3-cyclopropyl-1,2,4-triazol-1-yl)-2-azaspiro[3.3]heptan-2-yl]methanone], the concentration for half-maximal inhibition (IC50) is 4.2 nM.

Regarding `COC(=O)c1ccccc1CN1CC2(C1)CN(C(=O)N1CC3(CC(n4cnc(C5CC5)n4)C3)C1)C2` [Example 229, methyl 2-[[2-[6-(3-cyclopropyl-1,2,4-triazol-1-yl)-2-azaspiro[3.3]heptane-2-carbonyl]-2,6-diazaspiro[3.3]heptan-6-yl]methyl]benzoate], half-maximal inhibition (IC50) was put at 4.5 nM.

Regarding `O=C(N1CC2(CC(n3cnc(C4CC4)n3)C2)C1)N1CC2(C1)CN(S(=O)(=O)c1ccc(OC(F)(F)F)cc1)C2` [Example 230, [6-(3-cyclopropyl-1,2,4-triazol-1-yl)-2-azaspiro[3.3]heptan-2-yl]-[2-[4-(trifluoromethoxy)phenyl]sulfonyl-2,6-diazaspiro[3.3]heptan-6-yl]methanone], inhibition was half-maximal at 4.6 nM (IC50).

Molecule `O=C(N1CC2(CC(n3cnc(C4CC4)n3)C2)C1)N1CC2(C1)CN(S(=O)(=O)c1ccc(F)cc1F)C2` [Example 231, [6-(3-cyclopropyl-1,2,4-triazol-1-yl)-2-azaspiro[3.3]heptan-2-yl]-[2-(2,4-difluorophenyl)sulfonyl-2,6-diazaspiro[3.3]heptan-6-yl]methanone] had an IC50 of 4.6 nM.

`O=C(N1CC2(CC(n3cnc(C4CC4)n3)C2)C1)N1CC2(CN(Cc3ccc(C(F)(F)F)cn3)C2)C1` [Example 232]: the IC50 amounted to 4.6 nM.

The molecule `O=C(N1CC2(CC(n3cnc(C4CC4)n3)C2)C1)N1CC2(C1)CN(S(=O)(=O)c1cccc(OC(F)(F)F)c1)C2` [Example 233, [6-(3-cyclopropyl-1,2,4-triazol-1-yl)-2-azaspiro[3.3]heptan-2-yl]-[2-[3-(trifluoromethoxy)phenyl]sulfonyl-2,6-diazaspiro[3.3]heptan-6-yl]methanone] showed an IC50 of 5.3 nM.

The molecule `O=C(N1CC2(CC(n3cnc(C4CC4)n3)C2)C1)N1CC2(CN(Cc3ccc(F)cc3F)C2)C1` [Example 234, [6-(3-cyclopropyl-1,2,4-triazol-1-yl)-2-azaspiro[3.3]heptan-2-yl]-[6-[(2,4-difluorophenyl)methyl]-2,6-diazaspiro[3.3]heptan-2-yl]methanone] came in with an IC50 of 5.4 nM.

`O=C(N1CC(Oc2cncc(C3CC3)c2Cl)C1)N1CC2(CC(n3cnc(C4CC4)n3)C2)C1` [Example 235, [3-[(4-chloro-5-cyclopropyl-3-pyridyl)oxy]azetidin-1-yl]-[6-(3-cyclopropyl-1,2,4-triazol-1-yl)-2-azaspiro[3.3]heptan-2-yl]methanone] returned an IC50 of 6 nM.

Molecule `O=C(N1CC2(CC(n3cnc(C4CC4)n3)C2)C1)N1CC2(C1)CN(S(=O)(=O)c1ccc(F)c(C(F)(F)F)c1)C2` [Example 236, [6-(3-cyclopropyl-1,2,4-triazol-1-yl)-2-azaspiro[3.3]heptan-2-yl]-[2-[4-fluoro-3-(trifluoromethyl)phenyl]sulfonyl-2,6-diazaspiro[3.3]heptan-6-yl]methanone] had an IC50 of 6.2 nM.

For the molecule `O=C(N1CC2(CC(n3cnc(C4CC4)n3)C2)C1)N1CC2(C1)CN(S(=O)(=O)N1CCCCC1)C2` [Example 237, [6-(3-cyclopropyl-1,2,4-triazol-1-yl)-2-azaspiro[3.3]heptan-2-yl]-[2-(1-piperidylsulfonyl)-2,6-diazaspiro[3.3]heptan-6-yl]methanone], the IC50 is 6.4 nM.

`CS(=O)(=O)c1cc(F)ccc1OC1CCC2(CC1)CN(C(=O)N1CC3(CC(n4cnc(C5CC5)n4)C3)C1)C2` [Example 238, [6-(3-cyclopropyl-1,2,4-triazol-1-yl)-2-azaspiro[3.3]heptan-2-yl]-[7-(4-fluoro-2-mesyl-phenoxy)-2-azaspiro[3.5]nonan-2-yl]methanone] returned an IC50 of 6.5 nM.

Molecule `CC(C)(C)CS(=O)(=O)N1CC2(CN(C(=O)N3CC4(CC(n5cnc(C6CC6)n5)C4)C3)C2)C1` [Example 239] had a half-maximal inhibitory concentration (IC50) of 6.6 nM.
